# Experimental data from patent US6280760A, “Peptide-coated implants and methods for producing same” (Merck Patent Gesellschaft mit beschraenkter Haftung, priority 1997, dated 2001).
# Assays:
# MC3T3 H1 osteoblasts [1] = assay: Adhesion of MC3T3 H1 osteoblasts to PMMA bone cement shaped articles coated with cell-selective acrylate peptides; format: cell-based, mouse; settings: for cell adhesion, calculated Abs (405 nm), osteoblasts: first part experiment
# Description: (§1) The model used for material coating with RGD peptides of different cell selectivity to obtain implants having locally differentiated bioactive coating patterns which should stimulate the adhesion of different cell species was polymerized PMMA bone cement shaped articles. To these were covalently coupled two RGD peptides of different cell selectivity. In this case acrylate peptide 3, type iiia, having a selectivity for alphav beta3 -/alphav beta5 -integrin-bearing osteoblasts, and acrylate peptide 5, type iiia, having a selectivity for […] -positive platelets were bonded to the PMMA shaped articles as described for Example 3.
# (§2) a. In the first part experiment, PMMA shaped articles were coated with the acrylate peptides 3 and 5 in concentrations in the coating solution of 100 μM, 10 μM and 1 μM in each case. These RGD peptide-coated materials were then inoculated in parallel with osteoblasts and platelets and their cell adhesion was determined.
# (§3) MC3T3 H1 osteoblasts (350,000 cells/cm^2) and human platelets (50 million cells/cm^2) were in each case inoculated in parallel both onto acrylate peptide 3- and acrylate peptide 5-coated PMMA shaped articles and their cell adhesion was determined as described in Example 3.
# (§4) b. In the second part experiment, PMMA shaped articles were likewise coated with the acrylate peptides 3 and 5, but only in a concentration in the coating solution of 100 μM in each case. These RGD peptide-coated materials were then inoculated in parallel with osteoblasts, platelets or an osteoblast/platelet mixture and their cell adhesion was determined. MC3T3 H1 osteoblasts (350,000 cells/cm^2), human platelets (50 million cell/cm^2) and a cell mixture (350,000 osteoblasts/cm^2 […] 50 million platelets/cm^2) were in each case inoculated in parallel both onto acrylate peptide 3- and acrylate peptide 5-coated PMMA shaped articles and their cell adhesion was determined as described in Example 3.
# human platelets = assay: Adhesion of human platelets to PMMA bone cement shaped articles coated with cell-selective acrylate peptides; format: cell-based; settings: for cell adhesion, calculated Abs (405 nm), platelets: first part experiment
# Description: as §1, §2, §3
# Human platelets were prepared following the process of Shattil and Brass (J. Biol. Chem. 262:992-1000, 1987).
# as §4
# [2] = test system: osteoblasts/platelets mixture; assay: Adhesion of an osteoblast/platelet mixture to PMMA bone cement shaped articles coated with cell-selective acrylate peptides; format: cell-based, mouse, human; settings: second part experiment; 100 μM peptide in the coating solution
# Method: as §4
# MC3T3 H1 osteoblasts [3] = assay: Proliferation of MC3T3 H1 osteoblasts on RGD peptide-coated PMMA bone cement shaped articles (WST-1 test); format: cell-based, mouse
# Description: For the covalent coupling of acrylate peptide 3, type iiia, to polymerized PMMA bone cement shaped articles, a coating process which was described in Example 3 was selected.
# MC3T3 H1 mouse osteoblasts were then adhered to these RGD peptide-coated bone cement shaped articles as likewise described in Example 3, but with two differences: 12,000 cells/cm^2 instead of 48,000 cells/cm^2 were inoculated and the adhesion time was two hours instead of one hour. Additionally, only three different peptide concentrations were investigated in the coating solution: 0.01 μM, 1 μM and 100 μM.
# After washing off non-adherent cells, the MC3T3 H1 osteoblasts were cultured under 95% atmospheric humidity and 5% CO2 at 37° C. in serum-containing (10%) culture medium for a period of 15 days. During the course of this, the medium was changed twice per week and after 1, 2, 3, 4, 5, 10 and 15 days the cell count was determined by means of the WST-1 test by Boehringer Mannheim, Germany. In each case a typical exponential course of the cell proliferation of the cultured osteoblasts was seen here (FIG. 13). The maximally achieved cell count was directly dependent on the RGD peptide concentration in the coating solution. Thus after 15 culturing days per cm^2, about 1,000,000 cells (100 μM peptide), about 550,000 cells (1 μM peptide), about 300,000 cells (0.01 μM peptide) or about 230,000 cells were achieved (control without peptide). At the highest peptide concentration of 100 μM, an approximately 4- to 5-fold increase in the cell proliferation in comparison with uncoated samples was thus observed.
# MC3T3 H1 osteoblasts [4] = assay: Adhesion of MC3T3 H1 osteoblasts to PMMA moulded articles coated with acrylate RGD peptides; format: cell-based, mouse
# Method: For the covalent coupling of these peptides to polymerized PMMA (polymethyl methacrylate) surfaces, appropriate shaped articles of differing porosity (diameter: 10 mm; height: 2 mm) were prepared from three different PMMA components.
# Bone cement based on PMMA (Merck KGaA, Germany, Licence No. 5181.00.00) corresponding to the product description (40 g of powder+20 ml of liquid).
# 10 g of PMMA/PHEMA (polyhydroxyethyl methacrylate) granules, particle size 0.5-0.6 mm (Biomet) were mixed with 1.3 ml of an HEMA solution (68.6% HEMA, 29.4% TEGMA [triethylene glycol dimethacrylate], 2% tBPB, [tert-butyl peroxybenzoate]) and adhered by means of this to a porous support material.
# 10 g of PMMA granules (Plex Y7H, Rohm, Germany), particle fraction 0.7-2 mm were mixed with 1.5 ml of a methyl methacrylate (MMA) solution (68.6% MMA, 29.4% TEGMA, 2% tBPB) and adhered by this means to a porous support material.
# For the covalent coupling of the acrylate peptides to the prepolymerized PMMA moulded articles, stock solutions of the acrylate peptides 1, 2, 3 and 4 were prepared in a final concentration of 100 μM in each case in DMSO/0.2% camphorquinone (w/v). Then, by dilution with isopropanol/0.2% camphorquinone (w/v), concentration series having final peptide concentrations of 0.1 nM, 1 nM, 10 nM, 100 nM, 1 μM and 10 μM in each case were prepared. The moulded articles were incubated in daylight and at room temperature for 2 hours and then stored at 4° C. in the dry state. Before use, the samples were washed with PBS, pH 7.4, to remove unbound peptides and stored at 4° C. in PBS, pH 7.4, overnight.
# By addition of 250 μl/moulded article each of a 5% strength BSA solution in PBS, pH 7.4, and subsequent incubation for 2 hours at room temperature and washing once with PBS, pH 7.4, non-specific cell-binding sites were blocked.
# Subsequently, the adhesion of osteoblasts of the MC3T3 H1 line, obtained from the calvaria of neonatal mice (Heermeier et al., 1995, Cells and Materials 5: 309-321) to the above-described peptide-coated surfaces was investigated.
# The MC3T3 H1 osteoblasts were inoculated at an inoculation density of 48,000 cells/cm^2, as described above, in Costar 48-well plates, with PMMA moulded articles coated with RGD peptide and then incubated for 1 hour at 37° C., 95% atmospheric humidity and 5% CO2. Cells non-adhered during the experiment were then washed off twice with PBS, pH 7.4.
# The quantification of the adhered cells was carried out indirectly via the activity determination of the cellular enzyme N-acetylhexosaminidase using an appropriate standard curve according to the method of Landegren (1984, J. Immunol. Methods, 67: 379-388).
# [5] = 1 μM peptide in the coating solution
# [6] = 10 μM peptide in the coating solution
# [7] = 100 μM peptide in the coating solution
# [8] = second part experiment, 100 μM peptide in the coating solution
substance,measurement,setting,value
cyclo(RGDf[acrylic-ahx-tEG-K]) [acrylate peptide 3],"cell adhesion, calculated Abs (405 nm), osteoblasts",MC3T3 H1 osteoblasts [1]; [5],about 1.8 Abs
same,"cell adhesion, calculated Abs (405 nm), osteoblasts",MC3T3 H1 osteoblasts [1]; [6],about 2.0 Abs
same,"cell adhesion, calculated Abs (405 nm), osteoblasts",MC3T3 H1 osteoblasts [1]; [7],about 6.0 Abs
same,"cell adhesion, Abs, osteoblasts alone",MC3T3 H1 osteoblasts [1]; [8],about 6.0 Abs
same,"cell adhesion, calculated Abs (405 nm), platelets",human platelets; [5],about 0.2 Abs
same,"cell adhesion, calculated Abs (405 nm), platelets",human platelets; [6],about 1.5 Abs
same,"cell adhesion, calculated Abs (405 nm), platelets",human platelets; [7],about 3.0 Abs
same,"cell adhesion, Abs, platelets alone",human platelets; [8],about 3.0 Abs
same,"cell adhesion, Abs, osteoblasts/platelets inoculated as a mixture",[2],about 6.5 Abs
same,cell count after 15 culturing days per cm^2,MC3T3 H1 osteoblasts [3]; 0.01 μM peptide in the coating solution,"about 300,000 cells"
same,cell count after 15 culturing days per cm^2,MC3T3 H1 osteoblasts [3]; [5],"about 550,000 cells"
same,cell count after 15 culturing days per cm^2,MC3T3 H1 osteoblasts [3]; [7],"about 1,000,000 cells"
same,stimulation of cell adhesion (in words),"MC3T3 H1 osteoblasts [4]; PMMA carriers, comparison of anchor lengths",higher activity
same,cell adsorption rates increased in comparison with uncoated surfaces,"MC3T3 H1 osteoblasts [4]; bone cement shaped articles, FIG. 8",5-15 fold
same,maximal adsorption rates,"MC3T3 H1 osteoblasts [4]; different PMMA moulded articles, 48,000 cells/cm^2, 1 hour",80-100%
same,EC50,"MC3T3 H1 osteoblasts [4]; different PMMA moulded articles, read-out: half-maximal cell bindings, RGD peptide concentration in the coating solution",0.001 to 10 µM
same,cell adsorption rates increased in comparison with uncoated surfaces,"MC3T3 H1 osteoblasts [4]; porous PMMA/PHEMA granule shaped articles, FIG. 9",2-5 fold
same,cell adsorption rates increased in comparison with uncoated surfaces,"MC3T3 H1 osteoblasts [4]; porous Plex Y7H granule shaped articles, FIG. 10",2-3 fold
